Here are results for twelve molecules from ChEMBL document CHEMBL1201862, “PubChem BioAssay data set” (2004).

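Exposure lasted 48 hours, with cells grown in 96-well plates and compounds tested at five concentrations. GI50 = concentration required for 50% inhibition of growth.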 The source made the active and inactive calls. No stated cut-off is given here; in the data, active = GI50 up to about 1.1 µM and inactive = higher. Some results are limits rather than exact numbers.

Some test systems named below: XF498; LXFL 529; RXF 631; BT-549; MDA-N; MDA-MB-231; DU-145; Hs-578T; 786-0.
What all share (experiment): inhibition of tumour cell growth, NCI panel, 48 h

For the molecule `COC(=O)C(Cc1ccc2c(c1)OCO2)(NC(=O)c1ccccc1)P(=O)(OC)OC` (stereo not given), the GI50 with XF498, with LXFL 529 and in the test with RXF 631 was > 100 µM (inactive) each time.
Take `O=Cc1ccccc1CCn1c(=O)c2cc3c(=O)n(CCc4ccccc4C=O)c(=O)c3cc2c1=O`: in the test on LXFL 529, the GI50 was > 100 µM (inactive).
For the molecule `O=c1ccc2ccc(CBr)cc2o1`, the GI50 with BT-549 is 3 µM (inactive); in the test with MDA-N, 3.85 µM (inactive); in the test on MDA-MB-231 it was 1.72 µM (inactive); in the test on DU-145, 17.1 µM (inactive); with Hs-578T, 9.84 µM (inactive).
Turning to `COc1cc(C2S/C(=C/c3ccccc3)C(=O)N2c2ccccc2Cl)cc(OC)c1OC` (stereo not given), the GI50 in the test on BT-549 is 29.3 µM (inactive); with MDA-N, 15.7 µM (inactive); in the test on MDA-MB-231, 23.4 µM (inactive); in the test with Hs-578T, 16.5 µM (inactive).
Take `COc1ccc2nc(-n3c(/C=C/c4ccccc4O)nc4ccccc4c3=O)sc2c1`: the GI50 in the test on BT-549 was 27.5 µM (inactive); in the test with MDA-N, 17 µM (inactive); in the test on MDA-MB-231, > 100 µM (inactive); in the test with DU-145, > 100 µM (inactive); with Hs-578T, > 100 µM (inactive); with 786-0 it was 35.9 µM (inactive).
For `C=C1C(=O)O[C@@H]2[C@H](O)[C@@H](C)[C@@H]3C=CC(=O)[C@@]3(C)[C@@H](OC(=O)/C(C)=C/C)[C@H]12`, in the test with XF498, the GI50 is 0.471 µM (active).
Consider `CC(C)(C)c1ccc2c(c1)OP1(Oc3c(Cl)cc(Cl)c4cccnc34)(O2)Oc2ccc(C(C)(C)C)cc2O1`, for which the GI50 with XF498 is 13.5 µM (inactive).
As for `COc1cc2c(cc1O)N=C[C@@H]1CC[C@@H](O)N1C2=O.COc1cc2c(cc1O)N=C[C@@H]1CC[C@H](O)N1C2=O`, the GI50 in the test with XF498 is 0.48 µM (active).
For the molecule `Cc1ccc(S(=O)(=O)OCCN(CCOS(=O)(=O)c2ccc(C)cc2)c2ccc(C=O)cc2)cc1`, the GI50 was 28.8 µM (inactive) in the test with BT-549, 23.8 µM (inactive) in the test with MDA-MB-231, 27.1 µM (inactive) with DU-145 and 36.2 µM (inactive) in the test on Hs-578T.
Regarding `CC(=O)C(CN1CCCCC1)C(c1ccccc1)c1c(O)c2ccccc2oc1=O` (stereo not given), the GI50 in the test with BT-549, in the test with MDA-N, in the test on MDA-MB-231, in the test with DU-145, in the test on Hs-578T and with 786-0 was > 100 µM (inactive) in each case.
In the case of `Cc1cc(O)nc(NN2C(Cl)C(=O)C2c2cccc(Cl)c2)n1` (stereo not given), the GI50 in the test with LXFL 529 is > 10 µM (inactive).
On to `CCCCCCCCCCCCSC(=S)c1c(C)[nH]n(CCCCCCCCCCCC)c1=O`, for which the GI50 was 67.9 µM (inactive) in the test with LXFL 529 and > 100 µM (inactive) in the test with RXF 631.
